Experimental data as given in PubChem BioAssay (NCI).
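48-hour exposure; five concentrations; linearly interpolated endpoints. TGI: total growth inhibition.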

How the values were obtained:
Experiment in all cases: NCI anticancer screen, dose series, 48 h
MDA-MB-435 = system: MDA-MB-435
786-0 renal = system: 786-0 renal
MCF7 breast = system: MCF7 breast
HCC-2998 colon = system: HCC-2998 colon
NCI-H226 lung = system: NCI-H226 lung
SK-OV-3 ovarian = system: SK-OV-3 ovarian
OVCAR-5 ovarian = system: OVCAR-5 ovarian
SNB-75 CNS = system: SNB-75 CNS
NCI-H522 lung = system: NCI-H522 lung
EKVX NSCLC = system: EKVX NSCLC
MALME-3M melanoma = system: MALME-3M melanoma
LOX IMVI melanoma = system: LOX IMVI melanoma
A498 renal = system: A498 renal
RXF 393 renal = system: RXF 393 renal
SF-268 CNS = system: SF-268 CNS
HL-60(TB) leukemia = system: HL-60(TB) leukemia
KM12 colon = system: KM12 colon
MDA-MB-231 breast = system: MDA-MB-231 breast
SF-295 CNS = system: SF-295 CNS
IGROV1 ovarian = system: IGROV1 ovarian
TK-10 renal = system: TK-10 renal
SW-620 colon = system: SW-620 colon
HCT-116 colon = system: HCT-116 colon
HCT-15 colon = system: HCT-15 colon
CCRF-CEM leukemia = system: CCRF-CEM leukemia
K-562 leukemia = system: K-562 leukemia
UO-31 renal = system: UO-31 renal
MDA-N = system: MDA-N
DU-145 prostate = system: DU-145 prostate
U251 CNS = system: U251 CNS
NCI/ADR-RES ovarian = system: NCI/ADR-RES ovarian
PC-3 prostate = system: PC-3 prostate
COLO 205 colon = system: COLO 205 colon
HS 578T breast = system: HS 578T breast
M14 melanoma = system: M14 melanoma
SN12C renal = system: SN12C renal
OVCAR-4 ovarian = system: OVCAR-4 ovarian
T-47D breast = system: T-47D breast
SK-MEL-5 melanoma = system: SK-MEL-5 melanoma
SK-MEL-28 melanoma = system: SK-MEL-28 melanoma
SR leukemia = system: SR leukemia
HOP-92 NSCLC = system: HOP-92 NSCLC
ACHN renal = system: ACHN renal
UACC-62 melanoma = system: UACC-62 melanoma
UACC-257 melanoma = system: UACC-257 melanoma
NCI-H23 lung = system: NCI-H23 lung
CAKI-1 renal = system: CAKI-1 renal
SNB-19 CNS = system: SNB-19 CNS
SK-MEL-2 melanoma = system: SK-MEL-2 melanoma
HT29 colon = system: HT29 colon
BT-549 breast = system: BT-549 breast
RPMI-8226 leukemia = system: RPMI-8226 leukemia
NCI-H460 lung = system: NCI-H460 lung
HOP-62 NSCLC = system: HOP-62 NSCLC
OVCAR-3 ovarian = system: OVCAR-3 ovarian
OVCAR-8 ovarian = system: OVCAR-8 ovarian

c1ccc2c(CN3CCN(Cc4c[nH]c5ccccc45)CC3)c[nH]c2c1
TGI (MDA-MB-435): 32.4 µM | TGI (786-0 renal): 31.6 µM | TGI (MCF7 breast): 36.9 µM | TGI (HCC-2998 colon): 3.29 µM | TGI (NCI-H226 lung): 37.7 µM | TGI (SK-OV-3 ovarian): 61.8 µM | TGI (OVCAR-5 ovarian): 36.4 µM | TGI (SNB-75 CNS): 30.2 µM | TGI (NCI-H522 lung): 31.3 µM | TGI (EKVX NSCLC): 39.4 µM | TGI (MALME-3M melanoma): 29.5 µM | TGI (LOX IMVI melanoma): 30.6 µM | TGI (A498 renal): 27.8 µM | TGI (RXF 393 renal): 28.8 µM | TGI (SF-268 CNS): 36 µM | TGI (HL-60(TB) leukemia): 39.3 µM | TGI (KM12 colon): 33.1 µM | TGI (MDA-MB-231 breast): 31.2 µM | TGI (SF-295 CNS): 31.1 µM | TGI (IGROV1 ovarian): 27.4 µM | TGI (TK-10 renal): 29.1 µM | TGI (SW-620 colon): 93.9 µM | TGI (HCT-116 colon): 28.6 µM | TGI (HCT-15 colon): 44.4 µM | TGI (CCRF-CEM leukemia): > 100 µM | TGI (K-562 leukemia): 39.7 µM | TGI (UO-31 renal): 27.7 µM | TGI (MDA-N): 29.1 µM | TGI (DU-145 prostate): 40.7 µM | TGI (U251 CNS): 29.3 µM | TGI (NCI/ADR-RES ovarian): 58 µM | TGI (PC-3 prostate): 43.7 µM | TGI (COLO 205 colon): 20.8 µM | TGI (HS 578T breast): 36.2 µM | TGI (M14 melanoma): 29.1 µM | TGI (SN12C renal): 41.9 µM | TGI (OVCAR-4 ovarian): > 100 µM | TGI (T-47D breast): 39.1 µM | TGI (SK-MEL-5 melanoma): 29.1 µM | TGI (SK-MEL-28 melanoma): 36.9 µM | TGI (SR leukemia): 44.8 µM | TGI (HOP-92 NSCLC): 31.2 µM | TGI (ACHN renal): 40.6 µM | TGI (UACC-62 melanoma): 29.9 µM | TGI (UACC-257 melanoma): 27.5 µM | TGI (NCI-H23 lung): 42.7 µM | TGI (CAKI-1 renal): 69.4 µM | TGI (SNB-19 CNS): 45.9 µM | TGI (SK-MEL-2 melanoma): 31.5 µM | TGI (HT29 colon): 36.1 µM | TGI (BT-549 breast): 58.6 µM | TGI (RPMI-8226 leukemia): 53.2 µM | TGI (NCI-H460 lung): 25.3 µM | TGI (HOP-62 NSCLC): 31.2 µM | TGI (OVCAR-3 ovarian): 35.6 µM | TGI (OVCAR-8 ovarian): 37.6 µM
